According to patent publication US20190201489A1, “COMPOSITIONS AND METHODS FOR PREVENTING BONE LOSS AND/OR STIMULATING BONE HEALING” (NORTHEAST OHIO MEDICAL UNIVERSITY, priority 2016, published 2019):

Key:
ZCCHC6 = ZCCHC6 expression in IL-1β-stimulated chondrocytes; type: cell-based; conditions: human chondrocytes stimulated with IL-1β, n=4
Experimental: (§1) Chondrocytes were derived by enzymatic digestion of human cartilage obtained from OA patients (n=14) undergoing knee joint replacement. Chondrocytes were stimulated with IL-1β (5 ng/ml) or treated with Actinomycin D (5 μg/ml) or NFκB inhibitor SC514 (75 μM) or JNK inhibitor (25 μM). Total RNA from grounded cartilage and from chondrocytes was purified using Qiagen RNeasy kit (Qiagen). Reverse transcription was performed using the Quantitect Reverse Transcription kit and the ZCCHC6 or IL-6 mRNA was quantified using TaqMan assays. SiRNA-mediated depletion of ZCCHC6 in human chondrocytes was used to study the effect on inflammatory cytokine expression using a cytokine array (Ray Biotech). Protein expression of IL-6 was studied using Western immunoblotting and quantified by ELISA in culture supernatants. Results were derived using Sigma Plot 12.3 package and p<0.05 was considered significant.

IL-6 mRNA = IL-6 mRNA expression in chondrocytes by TaqMan assay; type: cell-based; conditions: human chondrocytes stimulated with IL-1β, n=4
Experimental: as §1

Interleukin-1β [IL-1β]
increase in expression of ZCCHC6 (ZCCHC6): 11.3 fold | increase in mRNA of IL-6 (IL-6 mRNA): 4956 fold
